Test results as given in patent US4578398A, “Substituted 2,3,4,9-tetrahydro-1H-carbazole-1-acetic acid, compositions and use” (American Home Products Corporation, priority 1985, dated 1986).

Columns and labels:
Phenylquinone Writhing = assay: Drug effects in phenylquinone-induced writhing in mice; assay type: in vivo, Male Swiss albino mice; conditions: p.o., mouse, 60 min before phenylquinone i.p., writhes counted 15 min
Experimental: A further test used to determine the utility of the compounds of the present invention is designated: DRUG EFFECTS IN PHENYLQUINONE-INDUCED WRITHING IN MICE.
The objective of this test is to determine the ability of test drugs to inhibit the nociceptive (pain) response of mice injected with a chemical irritant. This test is a primary screen for both peripheral and centrally acting analgesic drugs.
Male Swiss albino mice (15-25 g). The animals are fasted for 18 hours prior to use but have free access to water.
Drug Preparation and Administration:
Drugs are dissolved or suspended according to their solubility in 0.5% methyl cellulose or 0.5% Tween 80. They are administered by gastric lavage in a volume of 5 ml/kg. For primary screening all drugs are administered at the arbitrary dosage of 200 mg/kg, p.o. to a group of 10 mice.
A modification of the method of Siegmund et al., Proc. Soc. Exp. Biol. Med., 95, 729-731 (1957) is used. Groups of 5 mice are dosed with the test compound or vehicle control. Sixty minutes later the animals are injected i.p. with 0.3 ml/20 g body weight of a 0.02% solution of phenylquinone (PBQ; 2-phenyl-1,4-benzoquinone) and placed in individual observation boxes. The number of writhing or abdominal squirming movements made by each mouse during the following 15 min. period is counted. The experiment is repeated with another group of 5 mice and the mean number of writhes per mouse for a group of 10 mice is calculated.
Drug treated and vehicle-treated control groups are compared and the percentage protection conferred by the drug is calculated: [formula] where c=mean number of writhes in the control group where t=mean number of writhes in the test drug group

Adjuvant Edema = assay: Preventative Adjuvant Edema (Freund's complete adjuvant, hind paw edema volume in rats); assay type: in vivo, Male Sprague Dawley rats; conditions: p.o., rat, dosed day 0, 1 and 2, edema volume day 3
Experimental: This test is a primary screen for anti-inflammatory drugs.
Male Sprague Dawley rats (180-200 g) are used. The animals have free access water but food is withdrawn 18 hours before testing.
Drug Preparations and Administration:
Freund's complete adjuvant is prepared by suspending 5 mg killed and dried Mycobacterium butyricum (Difco) in 1 ml liquid paraffin. The test compounds are dissolved in distilled water or suspended in distilled water with a few drops of Tween 80 according to their solubility. […]
The method is essentially that described by Wax et al., J. Pharmacol. Exp. Ther., 192, 166-171 (1975). Groups of rats are injected intradermally in the left hind paw with 0.1 ml of Freund's complete adjuvant. The test compound or vehicle is administered immediately before the adjuvant, 24 hours and 48 hours after the adjuvant (day 0, 1 and 2). The injected hind paw volume is measured before the injection of adjuvant and 24 hrs. after the last drug administration (day 3) by means of a plethysmometer (Buxco Electronics Inc.). The difference between the hind paw volume on day 0 and day 3 represents the edema volume. Phenylbutazone (50 mg./kg, p.o.) is included as a positive control.
The mean edema volume (expressed as ml±SEM) is calculated for each group and the percentage protection conferred by the drug is calculated: [formula] where c is the mean edema volume for the untreated controls and t is the mean edema volume for the drug treated group.

Row | SMILES | % Inhibition (Phenylquinone Writhing in Mice) (Phenylquinone Writhing; 200 mg/kg) | % Inhibition (Preventative Adjuvant Edema) (Adjuvant Edema; 50 mg/kg) | % Inhibition (Phenylquinone Writhing in Mice) (Phenylquinone Writhing; 25 mg/kg) | % Inhibition (Preventative Adjuvant Edema) (Adjuvant Edema; 25 mg/kg)
1 | C=C(C)C1CCC(CC)(CC(=O)O)c2[nH]c3c(CC)cccc3c21 (single isomer, unassigned) [Example 3 d, 4-(1-Methylethenyl)-1,8-diethyl-2,3,4,9-tetrahydro-1H-carbazole-1-acetic Acid] | 50% | 25% |  | 
2 | C=C(C)C1CCC(CC)(CC(=O)O)c2[nH]c3c(CC)cccc3c21 (single isomer, unassigned) [Example 3 e, 4-(1-Methylethenyl)-1,8-diethyl-2,3,4,9-tetrahydro-1H-carbazole-1-acetic Acid] |  |  | 0% | 46%
3 | CCc1cccc2c3c([nH]c12)C(CC)(CC(=O)O)CCC3c1ccccc1 (single isomer, unassigned) [Example 2 e, 1,8-Diethyl-2,3,4,9-tetrahydro-4-phenyl-1H-carbazole-1-acetic acid] |  |  | 28% | 37%
4 | CCc1cccc2c3c([nH]c12)C(CC)(CC(=O)O)CCC3c1ccccc1 (single isomer, unassigned) [Example 2 d, 1,8-Diethyl-2,3,4,9-tetrahydro-4-phenyl-1H-carbazole-1-acetic Acid] |  |  | 17% | 12%
5 | C=CC1CCC(CC)(CC(=O)O)c2[nH]c3c(CC)cccc3c21 (single isomer, unassigned) [Example 1 h, 4-Ethenyl-1,8-diethyl-2,3,4,9-tetrahydro-1H-carbazole-1-acetic Acid] |  |  | 0% | 62%
6 | C=CC1CCC(CC)(CC(=O)O)c2[nH]c3c(CC)cccc3c21 (single isomer, unassigned) [Example 1 g, 4-Ethenyl-1,8-diethyl-2,3,4,9-tetrahydro-1H-carbazole-1-acetic Acid] |  |  | 21% | 30%
